Data published in article PMC5365662, “A Short Double-Stapled Peptide Inhibits Respiratory Syncytial Virus Entry and Spreading” (Antimicrobial Agents and Chemotherapy, 2017).
Bridge positions count the residues as written; N and C are the ends. Square brackets hold non-standard residues; d marks the D form. Peptide text beside a SMILES is read from it. R8 = C=CCCCCCC[C@@](C)(N)C(=O)O; S5 = C=CCCC[C@](C)(N)C(=O)O

Experiments:
[1] = biological target: 5HB, a recombinant protein containing 3 HR1 domains covalently attached to 2 HR2 domains; conditions: competition with fluorescently labeled T108 probe (2 nM), 5HB 50 nM, 10 min preincubation + 30 min room temperature, duplicates
From the text: The RSV HR2 region (residues 476 to 524) is a 49-amino-acid sequence that has been extensively characterized (Fig. 1). HR2 is a largely unstructured peptide in aqueous solution folding into an α-helix upon binding to trimeric HR1 coiled coils ([20]). […] We reduced HR2 (aa 483 to 516) into three short overlapping subdomains (subdomains 1 to 3) (Fig. 1). These peptides were scanned for various stapling combinations. […] Far-UV circular dichroism (CD) spectropolarimetry was used to investigate the effect of stapling on the α-helical content of the peptides. […] To assess the propensity of the stapled peptides to hinder the formation of the postfusion six-helix bundle required for viral cell entry, we used a 5-helix bundle (5HB) biochemical fluorescence polarization (FP) competition assay as previously described ([21], [22]).
The coding sequence of 5HB was designed as described previously and de novo synthesized by Genscript ([21]). The HR1 (aa 126 to 182) and HR2 (aa 476 to 524) coding sequences from wild-type RSV A2 strain F ([36]) were codon optimized for overexpression in Escherichia coli and cloned at NdeI/BamHI restriction sites of pET-15b to generate the expression plasmid for 5HB. The 5HB expression construct was transformed into Escherichia coli BL21(DE3). Cells were grown at 37°C to an optical density at 600 nm of 0.8 followed by induction with isopropyl-1-thio-β-D-galactopyranoside at a final concentration of 0.5 mM for 12 to 15 h. Cells were harvested by centrifugation, washed twice with PBS, and resuspended in 20 ml of PBS (pH 7.4), 500 mM NaCl, and 1% Triton X-100 supplemented with complete protease inhibitor. Cell suspensions were disrupted by sonication. Cell debris was removed through ultracentrifugation at 18,000 × g for 1 h at 4°C, and clarified cell lysate was mixed with 1 ml of nickel-nitrilotriacetic acid (Ni-NTA) agarose beads (Qiagen) preequilibrated with 20 ml of lysis buffer. The suspension was agitated for 1 h at 4°C and loaded onto a 5-ml polypropylene column (Qiagen). The column was washed twice with 8 ml of PBS (pH 7.4), 500 mM NaCl, 1% Triton X-100, and 100 mM imidazole. Proteins were eluted with 5 × 500 μl of a buffer containing PBS (pH 7.4), 300 mM imidazole, and 500 mM NaCl. The imidazole was removed by dialysis, and protein purity was assessed by SDS-polyacrylamide gel electrophoresis followed by Coomassie blue staining. Protein concentration was determined with the Qubit 2.0 Fluorometer (Life Technologies).
The T108 ([12]) peptide probe was synthesized by standard SPPS procedures using HCTU as a coupling reagent as described above. A 10-μl volume of recombinant 5HB protein in FP buffer (20 mM PBS [pH 7.4], 500 mM NaCl, 0.01% [vol/vol] Tween 20, and 0.05 mg/ml bovine gamma globulin) was preincubated for 10 min at room temperature with 10 μl of the appropriate concentration of the inhibitor, after which 10 μl of fluorescein isothiocyanate (FITC)-T106 was added and further incubated for 30 min at room temperature. The final concentrations of protein and probe were 50 nM and 2 nM, respectively. The fluorescence polarization assay was performed in 384-well plates using a Spectramax Paradigm (Molecular Devices), using excitation and emission wavelengths of 485 nm and 535 nm, respectively. The acquisition time was 700 ms, and the read height was 1 mm. All experiments were performed in duplicate. […] In order to ensure robust fitting for some fits, r0 was kept constant at the value measured for the free tracer in buffer.

circular dichroism = conditions: 10 mM phosphate; pH 7.5; 25 °C; 50 uM
[2] = tested on: rHRSV-mCherry in HEp-2 cells; assay: rHRSV-mCherry inhibition assay; assay type: cell-based, human respiratory syncytial virus; conditions: Table 3 (Ala scan); HEp-2 cells, rHRSV-mCherry MOI 0.2, 2-fold serial dilutions (11 dilutions), duplicate; ± SD of fit
Experimental: To measure the inhibitory activity of the peptide, the mCherry red fluorescence was quantified 48 h postinfection (p.i.).
Viral replication was quantified by measuring the mCherry fluorescence at 48 h p.i. and normalized based on the fluorescence of infected and untreated cells. (B) Cytotoxicity assay. HEp-2 cells were incubated in the presence of serial dilutions of peptides, and cell survival was quantified using the CellTiter-Glo Luminescent cell viability assay 24 h after the addition of the peptides. The signal was normalized based on the luminescence obtained for untreated cells. Error bars are standard deviations from duplicates.
HEp-2 cells were seeded at 5 × 10^4 cells per well in a 96-well plate the day before the infection. Peptides were 2-fold serially diluted in dimethyl sulfoxide (DMSO) (11 dilutions) and then further diluted in EMEM without phenol red and preincubated for 15 to 20 min with rHRSV-mCherry ([24]) at a final dilution with an MOI of 0.2 ([24]). The cells were incubated with the virus-peptide mixtures for a period of 1.5 to 2 h. The medium was then replaced by EMEM without phenol red containing 2% fetal bovine serum and the same concentration of peptide as the one that was used during the infection step. Plates were incubated 48 h at 37°C, and the mCherry fluorescence was measured using a spectrofluorometer (Tecan infinite M200PRO) with excitation and emission wavelengths of 580 and 620 nm, respectively. Relative fluorescence was normalized by the fluorescence of nontreated infected cells. Noninfected HEp-2 cells were used as standards for fluorescence background levels. Each experiment was performed in duplicate and repeated at least twice. The resulting inhibition curves were fitted in Igor Pro as described above.

| Compound | Kd [1] [µM] | helicity (circular dichroism) [%] | EC50 [2] [nM] |
| --- | --- | --- | --- |
| CC[C@H](C)[C@H](NC(=O)[C@H](CCCCN)NC(=O)[C@H](CCC(=O)O)NC(=O)[C@H](CC(N)=O)NC(=O)[C@@H](NC(=O)[C@H](CCC(N)=O)NC(=O)[C@H](CO)NC(=O)[C@@H](NC(=O)[C@H](CO)NC(=O)[C@H](C)NC(=O)[C@H](CC(=O)O)NC(=O)[C@H](Cc1ccccc1)NC(=O)[C@H](CCC(=O)O)NC(=O)[C@H](CC(=O)O)NC(=O)[C@H](CO)NC(=O)[C@@H]1CCCN1C(=O)[C@H](Cc1ccccc1)NC(=O)[C@H](CCC(=O)O)NC(C)=O)[C@@H](C)CC)C(C)C)C(=O)N[C@@H](CC(N)=O)C(N)=O [Peptide 1] (Ac-EFPSDEFDASISQVNEKIN-NH2) | 2.2 ± 0.5 |  |  |
| CC[C@H](C)[C@H](NC(=O)[C@H](CO)NC(=O)[C@H](C)NC(=O)[C@H](CC(=O)O)NC(=O)[C@H](Cc1ccccc1)NC(=O)[C@H](CCC(=O)O)NC(=O)[C@H](CC(=O)O)NC(=O)[C@H](CO)NC(=O)[C@@H]1CCCN1C(=O)[C@H](Cc1ccccc1)NC(=O)[C@H](CCC(=O)O)NC(C)=O)C(=O)N[C@]1(C)CCCCCCC=CCCC[C@@](C)(C(N)=O)NC(=O)[C@H]([C@@H](C)CC)NC(=O)[C@H](CCCCN)NC(=O)[C@H](CCC(=O)O)NC(=O)[C@H](CC(N)=O)NC(=O)[C@H](C(C)C)NC(=O)[C@H](CCC(N)=O)NC1=O [Peptide 1c] (Ac-EFPSDEFDASI[R8]QVNEKI[S5]-NH2; staple 12-19) | 221 ± 33 | 24.5 |  |
| CC[C@H](C)[C@H](NC(=O)[C@H](CCCCN)NC(=O)[C@H](CCC(=O)O)NC(=O)[C@H](CC(N)=O)NC(=O)[C@@H](NC(=O)[C@H](CCC(N)=O)NC(=O)[C@H](CO)NC(=O)[C@@H](NC(=O)[C@H](CO)NC(=O)[C@]1(C)CCCC=CCCC[C@](C)(NC(=O)[C@H](CO)NC(=O)[C@@H]2CCCN2C(=O)[C@H](Cc2ccccc2)NC(=O)[C@H](CCC(=O)O)NC(C)=O)C(=O)N[C@@H](CCC(=O)O)C(=O)N[C@@H](Cc2ccccc2)C(=O)N[C@@H](CC(=O)O)C(=O)N1)[C@@H](C)CC)C(C)C)C(=O)N[C@@H](CC(N)=O)C(N)=O [Peptide 1e] (Ac-EFPS[S5]EFD[S5]SISQVNEKIN-NH2; staple 5-9) | 15 ± 3 | 35.5 |  |
| CC[C@H](C)[C@H](NC(=O)[C@H](CCCCN)NC(=O)[C@]1(C)CCCC=CCCC[C@](C)(NC(=O)[C@@H](NC(=O)[C@H](CO)NC(=O)[C@H](C)NC(=O)[C@H](CC(=O)O)NC(=O)[C@H](Cc2ccccc2)NC(=O)[C@H](CCC(=O)O)NC(=O)[C@H](CC(=O)O)NC(=O)[C@H](CO)NC(=O)[C@@H]2CCCN2C(=O)[C@H](Cc2ccccc2)NC(=O)[C@H](CCC(=O)O)NC(C)=O)[C@@H](C)CC)C(=O)N[C@@H](CCC(N)=O)C(=O)N[C@@H](C(C)C)C(=O)N[C@@H](CC(N)=O)C(=O)N1)C(=O)N[C@@H](CC(N)=O)C(N)=O [Peptide 1g] (Ac-EFPSDEFDASI[S5]QVN[S5]KIN-NH2; staple 12-16) | 191 ± 19 | 46.8 |  |
| CC[C@H](C)[C@H](NC(=O)[C@H](CCCCN)NC(=O)[C@H](CCC(=O)O)NC(C)=O)C(=O)N[C@@]1(C)CCCC=CCCC[C@@](C)(C(=O)N[C@@H](Cc2ccccc2)C(=O)N[C@H](C(=O)N[C@@]2(C)CCCC=CCCC[C@@](C)(C(=O)N[C@@H](CC(C)C)C(=O)N[C@@H](CC(C)C)C(=O)N[C@@H](Cc3c[nH]cn3)C(=O)N[C@@H](C)C(=O)N[C@H](C(N)=O)C(C)C)NC(=O)[C@H](CC(=O)O)NC(=O)[C@H](CO)NC(=O)[C@H](CCCCN)NC2=O)[C@@H](C)CC)NC(=O)[C@H](CC(C)C)NC(=O)[C@H](CO)NC(=O)[C@H](CCC(N)=O)NC1=O [Peptide N515A] (Ac-EKI[S5]QSL[S5]FI[S5]KSD[S5]LLHAV-NH2; staple 4-8, 11-15) |  | 59 | 2710 ± 2930 |
| CC[C@H](C)[C@H](NC(=O)[C@H](CCCCN)NC(=O)[C@H](CCC(=O)O)NC(C)=O)C(=O)N[C@@]1(C)CCCC=CCCC[C@@](C)(C(=O)N[C@@H](Cc2ccccc2)C(=O)N[C@H](C(=O)N[C@@]2(C)CCCC=CCCC[C@@](C)(C(=O)N[C@@H](CC(C)C)C(=O)N[C@@H](CC(C)C)C(=O)N[C@@H](Cc3c[nH]cn3)C(=O)N[C@@H](CC(N)=O)C(=O)N[C@H](C(N)=O)C(C)C)NC(=O)[C@H](CC(=O)O)NC(=O)[C@H](CO)NC(=O)[C@H](CCCCN)NC2=O)[C@@H](C)CC)NC(=O)[C@H](CC(C)C)NC(=O)[C@H](CO)NC(=O)[C@H](C)NC1=O [Peptide Q501A] (Ac-EKI[S5]ASL[S5]FI[S5]KSD[S5]LLHNV-NH2; staple 4-8, 11-15) |  | 12 | 280 ± 430 |
| CC[C@H](C)[C@H](NC(=O)[C@H](CCCCN)NC(=O)[C@H](CCC(=O)O)NC(C)=O)C(=O)N[C@@]1(C)CCCC=CCCC[C@@](C)(C(=O)N[C@@H](Cc2ccccc2)C(=O)N[C@H](C(=O)N[C@@]2(C)CCCC=CCCC[C@@](C)(C(=O)N[C@@H](CC(C)C)C(=O)N[C@@H](CC(C)C)C(=O)N[C@@H](Cc3c[nH]cn3)C(=O)N[C@@H](CC(N)=O)C(=O)N[C@H](C(N)=O)C(C)C)NC(=O)[C@H](CC(=O)O)NC(=O)[C@H](CO)NC(=O)[C@H](CCCCN)NC2=O)[C@@H](C)CC)NC(=O)[C@H](CC(C)C)NC(=O)[C@H](C)NC(=O)[C@H](CCC(N)=O)NC1=O [Peptide S502A] (Ac-EKI[S5]QAL[S5]FI[S5]KSD[S5]LLHNV-NH2; staple 4-8, 11-15) |  | 15 | 660 ± 260 |
| CC[C@H](C)[C@H](NC(=O)[C@H](CCCCN)NC(=O)[C@H](CCC(=O)O)NC(C)=O)C(=O)N[C@@]1(C)CCCC=CCCC[C@@](C)(C(=O)N[C@@H](Cc2ccccc2)C(=O)N[C@H](C(=O)N[C@@]2(C)CCCC=CCCC[C@@](C)(C(=O)N[C@@H](CC(C)C)C(=O)N[C@@H](CC(C)C)C(=O)N[C@@H](Cc3c[nH]cn3)C(=O)N[C@@H](CC(N)=O)C(=O)N[C@@H](C)C(N)=O)NC(=O)[C@H](CC(=O)O)NC(=O)[C@H](CO)NC(=O)[C@H](CCCCN)NC2=O)[C@@H](C)CC)NC(=O)[C@H](CC(C)C)NC(=O)[C@H](CO)NC(=O)[C@H](CCC(N)=O)NC1=O [Peptide V516A] (Ac-EKI[S5]QSL[S5]FI[S5]KSD[S5]LLHNA-NH2; staple 4-8, 11-15) |  | 49 | 600 ± 30 |
